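Cultured in 96-well plates, cells were exposed to test compound for 48 hours across five concentrations. The concentration for 50% growth inhibition is given as GI50. Definition used: TGI = concentration required for complete inhibition of growth.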
What was measured:
Test in all cases: NCI tumour cell line growth inhibition, 48 h
[1] = system: TK-10 renal
[2] = system: SK-OV-3 ovarian
[3] = system: A498 renal
[4] = system: SR leukemia
[5] = system: CCRF-CEM leukemia
[6] = system: MALME-3M melanoma
[7] = system: K-562 leukemia
[8] = system: MDA-N
[9] = system: UO-31 renal
[10] = system: EKVX NSCLC
[11] = system: HCC-2998 colon

Compound | TGI [1] [µM] | TGI [2] [µM] | TGI [3] [µM] | TGI [4] [µM] | TGI [5] [µM] | TGI [6] [µM] | TGI [7] [µM] | TGI [8] [µM] | TGI [9] [µM] | TGI [10] [µM] | TGI [11] [µM] | GI50 [10] [µM] | GI50 [1] [µM] | GI50 [6] [µM] | GI50 [7] [µM] | GI50 [2] [µM] | GI50 [3] [µM] | GI50 [11] [µM] | GI50 [5] [µM] | GI50 [9] [µM]
Cn1c(O)c(C(=O)NC2CCCCC2)c(=O)n(C)c1=S | 33.3 | 23.8 | 13 | 48.9 | > 100 |  |  |  |  |  |  |  |  |  |  |  |  |  |  | 
O=C1NC(=S)NC(=O)C1C(c1ccc(O)cc1)C1C(=O)NC(=S)NC1=O | > 100 |  | > 100 |  | > 100 | > 100 | > 100 | > 100 | > 100 |  |  |  |  |  |  |  |  |  |  | 
O=C(Nc1cc(Cl)c(Cl)cc1Cl)C(=O)C1C(=O)NC(=S)NC1=O | > 100 | > 100 | > 100 | > 100 | > 100 | > 100 | > 100 |  | > 100 | > 100 | > 100 |  |  |  |  |  |  |  |  | 
CC1=CCC(O)C=CC(C)C(O)C(C)C=C(C)C(=O)c2c(O)c(C)cc3c2C(=O)C(N)=C(NC(=O)/C=C\C=C/C=CC(C)C(O)CC1=O)C3=O (configuration not stated) | > 100 | > 100 | > 100 |  | > 100 | 82.7 | > 100 |  | > 100 | > 100 | > 100 |  |  |  |  |  |  |  |  | 
N#C/C(=C/NC(N)=S)C(N)=O | > 100 | > 100 | > 100 |  |  |  |  | > 100 | > 100 | > 100 | > 100 |  |  |  |  |  |  |  |  | 
O=Cc1ccccc1COC(=O)c1cc(C(=O)OCc2ccccc2C=O)c(C(=O)OCc2ccccc2C=O)cc1C(=O)OCc1ccccc1C=O | > 100 | > 100 | > 100 | > 100 | > 100 | > 100 | > 100 |  | > 100 | > 100 | > 100 |  |  |  |  |  |  |  |  | 
COCc1nc2c(OC)c(-c3nc4nc(N5CCN(C)CC5)ccc4[nH]3)cc(OC)c2n1C |  | > 100 |  |  | 45.6 | 35.6 | > 100 | > 100 | 76.9 | 81.2 | 32.4 |  |  |  |  |  |  |  |  | 
Cc1cc(N(CCC#N)CCC#N)ccc1/C=C(\NC(=O)/C=C/c1ccccc1)C(N)=O | > 100 | > 100 | > 100 |  | > 100 | > 100 | > 100 |  | > 100 | > 100 | > 100 |  |  |  |  |  |  |  |  | 
CCN(CC)C1CC(O[C@H]2C[C@](O)(C(=O)CO)Cc3c(O)c4c(c(O)c32)C(=O)c2c(OC)cccc2C4=O)OC(C)C1O (some centres not stated) | 2.57 | 9.62 | 0.0798 |  | 1.41 | 0.166 | 0.947 |  | 0.264 | 0.336 | 0.29 |  |  |  |  |  |  |  |  | 
O=C(NC(Cc1ccccc1)(Cc1ccc(O)cn1)C(=O)O)c1ccccc1 (configuration not stated) | > 100 | > 100 |  |  | > 100 | > 100 | > 100 | > 100 | > 100 | > 100 | > 100 |  |  |  |  |  |  |  |  | 
CCOC(=O)c1c(N2CCOCC2)[nH]c(=O)c(C(c2c(Cl)cccc2Cl)c2c(O)c(C(=O)OCC)c(N3CCOCC3)[nH]c2=O)c1O | 14.3 | 24.9 | 20.9 | 15.9 | 3.56 | 7.91 | 6.55 |  | 6.37 | 32.9 | 34 |  |  |  |  |  |  |  |  | 
Nc1nc([O-])c2c(n1)[n+](C1OC(CO)C(O)C1O)cn2CCO (configuration not stated) | > 100 | > 100 | > 100 | > 100 | > 100 | > 100 | > 100 |  | > 100 | > 100 |  |  |  |  |  |  |  |  |  | 
C[Si](C)(C)OC1CC(=O)OC1n1cc(F)c(=O)[nH]c1=O (configuration not stated) | > 100 | > 100 | > 100 | 9.38 | > 96.4 | > 100 | > 100 |  | > 100 | > 100 | > 100 |  |  |  |  |  |  |  |  | 
O=c1cc(-c2ccc(Oc3ccccc3)cc2)[nH]c2cc3c(cc12)OCO3 | > 100 |  | > 100 | > 100 | > 100 | > 100 | > 100 |  | > 100 | > 100 | > 100 |  |  |  |  |  |  |  |  | 
Cc1ccc([N+](=O)[O-])c2c(NCCC[N+](C)(C)[O-])c3ccccc3nc12 | 80.5 | > 100 | 4.84 |  | > 30.8 | 2.78 | > 38.3 |  | 42.6 | 3.88 | 2.55 |  |  |  |  |  |  |  |  | 
CN=C(SC)N(C)c1nc(=[N+](C)C)ss1 | > 100 | > 100 | > 100 | > 100 | > 100 |  | 69 |  | > 100 | > 100 | > 100 |  |  |  |  |  |  |  |  | 

Compound | TGI [1] [µM] | TGI [2] [µM] | TGI [3] [µM] | TGI [4] [µM] | TGI [5] [µM] | TGI [6] [µM] | TGI [7] [µM] | TGI [8] [µM] | TGI [9] [µM] | TGI [10] [µM] | TGI [11] [µM] | GI50 [10] [µM] | GI50 [1] [µM] | GI50 [6] [µM] | GI50 [7] [µM] | GI50 [2] [µM] | GI50 [3] [µM] | GI50 [11] [µM] | GI50 [5] [µM] | GI50 [9] [µM]
COc1ccccc1CNCCCN1C(=O)c2ccc3c4c(ccc(c24)C1=O)C(=O)N(CCCNCCNCCCN)C3=O | 44.7 | 26.3 | 20.1 |  | 56.8 | 3.2 | 16.7 |  | 84.5 | 16.3 | 10.3 | 4.17 | 6.65 | 1.61 | 3.24 | 4.04 | 5.01 | 2.25 | 3.17 | 10.8
COc1cc(Br)cc2cc(-c3cn4c(n3)sc3ccccc34)c(=O)oc12 | > 75 | > 75 | 51 | > 75 | > 75 |  | 46.4 |  | > 75 | 52.1 |  |  |  |  |  |  |  |  |  | 
CC(=O)O[C@H]1C(=O)[C@@]2(C)C(C(OC(=O)c3ccccc3)[C@]3(O)CC(OC(=O)C(O)C(NC(=O)c4ccc(C(F)(F)F)cc4)c4ccccc4)C(C)=C1C3(C)C)[C@]1(OC(C)=O)CO[C@@H]1C[C@@H]2O (some centres not stated) | > 37.5 | 0.946 | > 37.5 | 4.96 | 15.5 | 13.7 | 14.8 |  |  |  | 0.387 |  |  |  |  |  |  |  |  | 
CCOC(=O)CC(C)C1(C(=O)OCC)CCCCC1=O (configuration not stated) | > 100 | > 100 | > 100 | 55.4 | > 100 | > 100 | > 100 |  | > 100 | > 100 | > 100 |  |  |  |  |  |  |  |  | 
COC(=O)Nc1nc2ccc(S(=O)(=O)SC)cc2[nH]1 | 22.1 | 43 | 99.7 | 62.8 | 61.4 | 25.6 | > 100 |  |  | 62.5 | 42.4 |  |  |  |  |  |  |  |  | 
Nc1ccc(Cc2c(N)[nH]c(=O)[nH]c2=O)cc1 |  | > 100 | > 100 |  | > 100 | > 100 | > 100 | > 100 | > 100 |  | > 100 |  |  |  |  |  |  |  |  | 
CN(C)CC1CCCC(CN(C)C)C1OC(=O)c1ccccc1 (configuration not stated) | > 100 | > 100 | > 100 | > 100 | > 100 | > 100 | > 100 |  | > 100 | > 100 | > 100 |  |  |  |  |  |  |  |  | 
Cc1cc(NS(=O)(=O)c2ccc(Nc3c4ccccc4nc4c(C(=O)N5CCN(CCO)CC5)cccc34)cc2)no1 | > 100 | > 100 | > 100 | > 100 | > 100 | > 100 | > 100 |  | > 100 | > 100 | > 100 |  |  |  |  |  |  |  |  | 
C=C(C)[C@H]1Cc2c(ccc3c2O[C@@H]2COc4cc(OC)c(OC)cc4[C@@H]2C3=O)O1 | 54.5 | 48.8 | 63.3 | 22.2 | 71.1 | 48 | > 72.1 |  | 58.8 | > 88.4 | 8.12 |  |  |  |  |  |  |  |  | 
CC(C)OC(=O)/C=C/C(=O)O/C=C/[N+](=O)[O-] | > 100 | > 100 | 40.4 | 71.6 |  | 63.7 | 66.8 |  | > 100 | > 100 | 50.2 |  |  |  |  |  |  |  |  | 
O=C(Nc1ccccc1-c1nc2ccccc2[nH]c1=O)c1ccccc1 | 31.6 | 40.5 | 51.3 |  | > 100 | 92.7 | > 100 |  | 38.3 | 70.3 | 33.7 |  |  |  |  |  |  |  |  | 
CCOC(=O)Cc1nc2cc(F)c(F)cc2[nH]c1=O | > 100 | > 100 |  |  | > 100 | > 100 | > 100 | > 100 | > 100 | > 100 | > 100 |  |  |  |  |  |  |  |  | 
CC1(C)C[C@@H]2C1CCC1(C)CC2(O)CC[C@H]1O (some centres not stated) | > 100 | > 100 |  | > 100 | > 100 | > 100 | > 100 |  | > 100 | > 100 |  |  |  |  |  |  |  |  |  | 
CC(=O)O[C@H]1C(=O)[C@@]2(C)[C@H]([C@H](OC(=O)c3ccoc3)[C@]3(O)C[C@H](OC(=O)[C@H](O)[C@@H](NC(=O)c4ccccc4)c4ccccc4)C(C)=C1C3(C)C)[C@]1(OC(C)=O)CO[C@@H]1C[C@@H]2O | > 12.5 | > 3.15 | > 12.5 |  | > 2.88 |  | 0.156 |  | > 12.5 | > 12.5 | 0.998 |  |  |  |  |  |  |  |  | 
CN(C)CCCN=c1c2ccccc2n(O)c2ccccc12 | > 100 | > 100 | > 100 |  | > 100 | > 100 | > 100 | > 100 | > 100 | > 100 |  |  |  |  |  |  |  |  |  | 

Source: PubChem BioAssay (NCI)
